Source: US20250144067A1, “PERSONALIZED STARVATION THERAPY FOR CANCER” (Faeth Therapeutics, Inc., priority 2021, published 2025)
Structures can show the parent of a compound that is named as a salt.

test system: NCI-H292 lung cancer cells; test: FDA drug screening, complete media vs cholesterol-free media with simvastatin (TABLE 2); type: cell-based, human; conditions: not given

Row | SMILES | Cholesterol-free media + simvastatin (0.04 μM) | Complete Media | Difference
1 | C[N+](C)(C)CCO.O=C([O-])C(O)C(O)C(=O)O (stereo not drawn) [Choline (bitartrate)] | 1.34 | 1.054 | −0.29
2 | CC1(C)C[C@@H]1C(=O)N/C(=C\CCCCSC[C@H](N)C(=O)O)C(=O)O [Cilastatin] | 1.258 | 0.85 | −0.41
3 | C[N+]1(CC2CC2)[C@@H]2C[C@@H](OC(=O)[C@H](CO)c3ccccc3)C[C@H]1[C@@H]1O[C@@H]12.[Br-] (stereo partly drawn) [Cimetropium (Bromide)] | 1.704 | 1.429 | −0.28

same assay, conditions: NCI-H292 cells, FDA drug library screen, cholesterol-free media with simvastatin 0.04 μM

Row | SMILES | Cholesterol-free media + simvastatin (0.04 μM)
4 | CN(C)CC/C=C1/c2ccccc2Sc2ccc(Cl)cc21 [Chlorprothixene (hydrochloride)] | 0.8374
5 | CN(C)CC/C=C1/c2ccccc2Sc2ccc(Cl)cc21 [Chlorprothixene] | 2.022
6 | CC(C)(Oc1ccc(C(=O)c2ccc(Cl)cc2)cc1)C(=O)[O-].C[N+](C)(C)CCO [Choline Fenofibrate] | 1.101
7 | Cn1c(=O)c2[nH]cnc2n(C)c1=O [Choline theophyllinate] | 1.275
8 | CC(C)C(=O)OCC(=O)[C@@]12O[C@H](C3CCCCC3)O[C@@H]1C[C@H]1[C@@H]3CCC4=CC(=O)C=C[C@]4(C)[C@H]3[C@@H](O)C[C@@]12C [Ciclesonide] | 0.6652
9 | Cc1cc(C2CCCCC2)n(O)c(=O)c1 [Ciclopirox] | 0.2219
10 | O=C1CCc2cc(OCCCCc3nnnn3C3CCCCC3)ccc2N1 [Cilostazol] | 0.8234

same assay, conditions: NCI-H292 cells, FDA drug library screen, complete media

Row | SMILES | Complete Media
11 | CN(C)CC/C=C1/c2ccccc2Sc2ccc(Cl)cc21 [Chlorprothixene (hydrochloride)] | 1.056
12 | CC(C)(Oc1ccc(C(=O)c2ccc(Cl)cc2)cc1)C(=O)[O-].C[N+](C)(C)CCO [Choline Fenofibrate] | 1.295
13 | CC(C)C(=O)OCC(=O)[C@@]12O[C@H](C3CCCCC3)O[C@@H]1C[C@H]1[C@@H]3CCC4=CC(=O)C=C[C@]4(C)[C@H]3[C@@H](O)C[C@@]12C [Ciclesonide] | 0.5742
14 | Cc1cc(C2CCCCC2)n(O)c(=O)c1 [Ciclopirox] | 0.6804
15 | O=C1CCc2cc(OCCCCc3nnnn3C3CCCCC3)ccc2N1 [Cilostazol] | 0.9809

same assay, conditions: NCI-H292 cells, FDA library drug in cholesterol-free media with simvastatin 0.04 μM

Row | SMILES | Cholesterol-free media + simvastatin (0.04 μM)
16 | CN(C)CCOC(C)(c1ccccc1)c1ccc(Cl)cc1 (stereo not drawn) [Chlorphenoxamine] | 1.703
17 | CN(C)[C@@H]1C(O)=C(C(N)=O)C(=O)[C@@]2(O)C(O)=C3C(=O)c4c(O)ccc(Cl)c4[C@@](C)(O)[C@H]3C[C@@H]12 [Chlortetracycline (hydrochloride)] | 1.491
18 | CC(C)CCC[C@@H](C)[C@H]1CC[C@H]2[C@@H]3CC=C4C[C@@H](O)CC[C@]4(C)[C@H]3CC[C@]12C [Cholesterol] | 1.697
19 | O=C(O)c1cc(=O)c2ccccc2o1 [Chromocarb] | 1.932

same assay, conditions: NCI-H292 cells, FDA library drug in complete media

Row | SMILES | Complete Media
20 | CN(C)CCOC(C)(c1ccccc1)c1ccc(Cl)cc1 (stereo not drawn) [Chlorphenoxamine] | 1.16
21 | CN(C)[C@@H]1C(O)=C(C(N)=O)C(=O)[C@@]2(O)C(O)=C3C(=O)c4c(O)ccc(Cl)c4[C@@](C)(O)[C@H]3C[C@@H]12 [Chlortetracycline (hydrochloride)] | 1.106
22 | CC(C)CCC[C@@H](C)[C@H]1CC[C@H]2[C@@H]3CC=C4C[C@@H](O)CC[C@]4(C)[C@H]3CC[C@]12C [Cholesterol] | 1.069
23 | O=C(O)c1cc(=O)c2ccccc2o1 [Chromocarb] | 1.471

same assay, conditions: complete media minus cholesterol-free media + simvastatin (0.04 μM); >0 enhanced anti-cancer activity, about 0 neutral, <0 antagonist

Row | SMILES | Difference
24 | CN(C)CC/C=C1/c2ccccc2Sc2ccc(Cl)cc21 [Chlorprothixene] | −0.96

same assay, conditions: complete media minus cholesterol-free media + simvastatin; >0 enhanced anti-cancer activity, about 0 neutral, <0 antagonist

Row | SMILES | Difference
25 | CN(C)CC/C=C1/c2ccccc2Sc2ccc(Cl)cc21 [Chlorprothixene (hydrochloride)] | 0.22
26 | CC(C)(Oc1ccc(C(=O)c2ccc(Cl)cc2)cc1)C(=O)[O-].C[N+](C)(C)CCO [Choline Fenofibrate] | 0.19
27 | Cc1cc(C2CCCCC2)n(O)c(=O)c1 [Ciclopirox] | 0.46
28 | O=C1CCc2cc(OCCCCc3nnnn3C3CCCCC3)ccc2N1 [Cilostazol] | 0.16

same assay, conditions: complete media vs cholesterol-free media + simvastatin (0.04 μM); >0 enhanced anti-cancer activity, about 0 neutral, <0 antagonist

Row | SMILES | Difference
29 | CN(C)CCOC(C)(c1ccccc1)c1ccc(Cl)cc1 (stereo not drawn) [Chlorphenoxamine] | −0.54
30 | CN(C)[C@@H]1C(O)=C(C(N)=O)C(=O)[C@@]2(O)C(O)=C3C(=O)c4c(O)ccc(Cl)c4[C@@](C)(O)[C@H]3C[C@@H]12 [Chlortetracycline (hydrochloride)] | −0.38
31 | CC(C)CCC[C@@H](C)[C@H]1CC[C@H]2[C@@H]3CC=C4C[C@@H](O)CC[C@]4(C)[C@H]3CC[C@]12C [Cholesterol] | −0.63
32 | Cn1c(=O)c2[nH]cnc2n(C)c1=O [Choline theophyllinate] | −0.10
33 | O=C(O)c1cc(=O)c2ccccc2o1 [Chromocarb] | −0.46
34 | CC(C)C(=O)OCC(=O)[C@@]12O[C@H](C3CCCCC3)O[C@@H]1C[C@H]1[C@@H]3CCC4=CC(=O)C=C[C@]4(C)[C@H]3[C@@H](O)C[C@@]12C [Ciclesonide] | −0.09

test system: NCI-H292 lung cancer cells; test: FDA drug screening, complete media vs cholesterol-free media without statin (TABLE 1); type: cell-based, human; conditions: not given

Row | SMILES | Cholesterol-free | Complete | Difference
35 | C[N+](C)(C)CCO.O=C([O-])C(O)C(O)C(=O)O (stereo not drawn) [Choline (bitartrate)] | 1.646 | 0.8603 | −0.79
36 | CC1(C)C[C@@H]1C(=O)N/C(=C\CCCCSC[C@H](N)C(=O)O)C(=O)O [Cilastatin] | 1.185 | 0.8515 | −0.33
37 | C[N+]1(CC2CC2)[C@@H]2C[C@@H](OC(=O)[C@H](CO)c3ccccc3)C[C@H]1[C@@H]1O[C@@H]12.[Br-] (stereo partly drawn) [Cimetropium (Bromide)] | 0.8786 | 0.8182 | −0.06

same assay, conditions: Complete minus Cholesterol-free; >0 enhanced anti-cancer activity, about 0 neutral, <0 antagonist

Row | SMILES | Difference
38 | CC(C)CCC[C@@H](C)[C@H]1CC[C@H]2[C@@H]3CC=C4C[C@@H](O)CC[C@]4(C)[C@H]3CC[C@]12C [Cholesterol] | −0.27
39 | Cn1c(=O)c2[nH]cnc2n(C)c1=O [Choline theophyllinate] | −0.20
40 | CC(C)C(=O)OCC(=O)[C@@]12O[C@H](C3CCCCC3)O[C@@H]1C[C@H]1[C@@H]3CCC4=CC(=O)C=C[C@]4(C)[C@H]3[C@@H](O)C[C@@]12C [Ciclesonide] | −0.28

same assay, conditions: Complete minus Cholesterol-free; greater than 0 enhanced anti-cancer activity, about 0 neutral, below 0 antagonist

Row | SMILES | Difference
41 | Cc1cc(C2CCCCC2)n(O)c(=O)c1 [Ciclopirox] | −0.10

same assay, conditions: Complete minus Cholesterol-free; greater than 0 enhanced anti-cancer activity, about 0 neutral, below 0 antagonists

Row | SMILES | Difference
42 | CC(C)(Oc1ccc(C(=O)c2ccc(Cl)cc2)cc1)C(=O)[O-].C[N+](C)(C)CCO [Choline Fenofibrate] | −0.65

same assay, conditions: NCI-H292 cells in cholesterol-free media without statin

Row | SMILES | Cholesterol-free
43 | CC(C)(Oc1ccc(C(=O)c2ccc(Cl)cc2)cc1)C(=O)[O-].C[N+](C)(C)CCO [Choline Fenofibrate] | 1.252

same assay, conditions: NCI-H292 cells in complete media

Row | SMILES | Complete
44 | CC(C)(Oc1ccc(C(=O)c2ccc(Cl)cc2)cc1)C(=O)[O-].C[N+](C)(C)CCO [Choline Fenofibrate] | 0.6045

same assay, conditions: NCI-H292 cells, FDA drug library screen, cholesterol-free media without statin

Row | SMILES | Cholesterol-free
45 | Cc1cc(C2CCCCC2)n(O)c(=O)c1 [Ciclopirox] | 0.2725

same assay, conditions: NCI-H292 cells, FDA drug library screen, complete media

Row | SMILES | Complete
46 | Cc1cc(C2CCCCC2)n(O)c(=O)c1 [Ciclopirox] | 0.1741

same assay, conditions: NCI-H292 cells, cholesterol-free media without statin

Row | SMILES | Cholesterol-free
47 | CN(C)CCOC(C)(c1ccccc1)c1ccc(Cl)cc1 (stereo not drawn) [Chlorphenoxamine] | 1.303
48 | CN(C)CC/C=C1/c2ccccc2Sc2ccc(Cl)cc21 [Chlorprothixene (hydrochloride)] | 1.492
49 | CN(C)CC/C=C1/c2ccccc2Sc2ccc(Cl)cc21 [Chlorprothixene] | 1.606
50 | CN(C)[C@@H]1C(O)=C(C(N)=O)C(=O)[C@@]2(O)C(O)=C3C(=O)c4c(O)ccc(Cl)c4[C@@](C)(O)[C@H]3C[C@@H]12 [Chlortetracycline (hydrochloride)] | 1.583
51 | CC(C)CCC[C@@H](C)[C@H]1CC[C@H]2[C@@H]3CC=C4C[C@@H](O)CC[C@]4(C)[C@H]3CC[C@]12C [Cholesterol] | 1.34
52 | Cn1c(=O)c2[nH]cnc2n(C)c1=O [Choline theophyllinate] | 1.108
53 | O=C(O)c1cc(=O)c2ccccc2o1 [Chromocarb] | 1.221
54 | CC(C)C(=O)OCC(=O)[C@@]12O[C@H](C3CCCCC3)O[C@@H]1C[C@H]1[C@@H]3CCC4=CC(=O)C=C[C@]4(C)[C@H]3[C@@H](O)C[C@@]12C [Ciclesonide] | 0.7014
55 | O=C1CCc2cc(OCCCCc3nnnn3C3CCCCC3)ccc2N1 [Cilostazol] | 1.501

same assay, conditions: NCI-H292 cells, complete media

Row | SMILES | Complete
56 | CN(C)CCOC(C)(c1ccccc1)c1ccc(Cl)cc1 (stereo not drawn) [Chlorphenoxamine] | 0.9903
57 | CN(C)CC/C=C1/c2ccccc2Sc2ccc(Cl)cc21 [Chlorprothixene (hydrochloride)] | 1.027
58 | CN(C)CC/C=C1/c2ccccc2Sc2ccc(Cl)cc21 [Chlorprothixene] | 1.176
59 | CN(C)[C@@H]1C(O)=C(C(N)=O)C(=O)[C@@]2(O)C(O)=C3C(=O)c4c(O)ccc(Cl)c4[C@@](C)(O)[C@H]3C[C@@H]12 [Chlortetracycline (hydrochloride)] | 1.205
60 | CC(C)CCC[C@@H](C)[C@H]1CC[C@H]2[C@@H]3CC=C4C[C@@H](O)CC[C@]4(C)[C@H]3CC[C@]12C [Cholesterol] | 1.074
61 | Cn1c(=O)c2[nH]cnc2n(C)c1=O [Choline theophyllinate] | 0.9038
62 | O=C(O)c1cc(=O)c2ccccc2o1 [Chromocarb] | 0.8012
63 | CC(C)C(=O)OCC(=O)[C@@]12O[C@H](C3CCCCC3)O[C@@H]1C[C@H]1[C@@H]3CCC4=CC(=O)C=C[C@]4(C)[C@H]3[C@@H](O)C[C@@]12C [Ciclesonide] | 0.4234

same assay, conditions: complete vs cholesterol-free media; greater than 0 enhanced anti-cancer activity, about 0 neutral, below 0 antagonists

Row | SMILES | Difference
64 | CN(C)CCOC(C)(c1ccccc1)c1ccc(Cl)cc1 (stereo not drawn) [Chlorphenoxamine] | −0.31
65 | CN(C)CC/C=C1/c2ccccc2Sc2ccc(Cl)cc21 [Chlorprothixene (hydrochloride)] | −0.46
66 | CN(C)CC/C=C1/c2ccccc2Sc2ccc(Cl)cc21 [Chlorprothixene] | −0.43
67 | CN(C)[C@@H]1C(O)=C(C(N)=O)C(=O)[C@@]2(O)C(O)=C3C(=O)c4c(O)ccc(Cl)c4[C@@](C)(O)[C@H]3C[C@@H]12 [Chlortetracycline (hydrochloride)] | −0.38
68 | O=C(O)c1cc(=O)c2ccccc2o1 [Chromocarb] | −0.42
69 | O=C1CCc2cc(OCCCCc3nnnn3C3CCCCC3)ccc2N1 [Cilostazol] | −0.33
